{"source": "patent US11266710B2", "about": "“Angio-3 for treatment of retinal angiogenic diseases” (SINGAPORE HEALTH SERVICES PTE LTD, priority 2017, dated 2022)", "key": {"[1]": {"tested_on": "corneal epithelial wound in wild-type mice", "assay": "Corneal wound healing in a mouse model", "type": "in vivo", "conditions": "day 0 to Day 5; treated vs control wild-type mice", "excerpt": "FIGS. 28A and 28B are images and a graph showing results of testing wound healing in a mouse model. FIG. 28A are representative slitlamp biomicroscopy images of murine cornea following the removal of corneal epithelium from Angio-3 treated and control wild-type mice and topical fluorescein staining of the epithelial defect (green). FIG. 28B is a graph of the percentage of wound defect remaining (vertical axis) over time (horizontal axis) in Angio-3 treated and control wild-type mice, n=6 for each group from 2 independent experiments. Both groups are statistically significant. Angio-3 didn't affect the normal wound healing process. Data is represented as mean±S.D.\nTwo (2)-mm trephine was used to mark the wound size. Epithelium, basement membrane and some stromal layers were removed by peeling using forceps. Fluorescein staining to the wounded area of cornea was done from day 0 to Day 5 (n=6 mice per group from 2 independent experiments). Gentle and meticulous approach when wounding and handling mouse cornea, fluorescein was diluted, slit lamp images had to be taken within a few seconds after staining. The wound area was quantified by ImageJ software. Student's t-test was used to compare data between two groups; P<0.05 was considered to be significant."}, "[2]": {"tested_on": "retinal function (a- and b-wave) in B6J WT mice", "assay": "Retinal function test (ERG) in laser-induced CNV mice", "type": "in vivo, mouse", "conditions": "laser-induced CNV mice with and without Angio-3 treatment", "method": "(§1) FIG. 3A is a schematic of the experimental design on the efficacy of Angio-3 in a laser-induced choroidal neovascularization (CNV) model in mice (B6J WT mice). FIG. 3B are FFA images of baseline and at different time points post treatment. IV single injection of 100 μL of Angio-3 (25 mg/Kg Bwt) was given at Day 0 (prevention mode) and 4 days after laser (regression mode) and followed for 10 weeks. FIG. 3C is a graph showing the area of leakage by each eye for various groups. FIG. 3D are graphs of the mean area of leakage of all batches for each group. […] The attenuation retinal vascularization was better than scrambled peptide. n=6 eyes per batch; n=3 batches. Values are expressed as means±s.e.m., **P<0.01, *P<0.05, student's t-test. FIG. 3E is a graph of the result of the Retinal Function Test that measures ERG changes in Angio-3 treated and control.\nAnimals were dark-adapted overnight (12 h), and the preparations for recordings were carried out under dim red light. Anesthesia and pupil dilation were induced as described. Animals were lightly secured to a stage with fastener strips across the upper and lower back to ensure a stable, reproducible position for ERG recordings. […] ERGs were recorded (Espion; Diagnosis LLC, Redwood City, Calif.) with corneal monopolar electrodes (Mayo, Aichi, Japan). […]"}, "[3]": {"tested_on": "laser-induced CNV in C57/BL6J (B6J) wild type mice", "assay": "Laser-induced choroidal neovascularization (CNV) model in mice, area of leakage by FFA", "type": "in vivo", "conditions": "mice; IV route", "method": "as §1\nFIG. 4A is a schematic of the experimental design on the efficacy of Angio-3 by IVT administration. […]\nFIG. 11 A are FFA images of baseline and at different time points post treatment. Mice received single IVT injection of Angio-3 (at a dose of 1 μg in 1 μl or 100 ng in 1 μl), and chemically modified Angio-3 peptides Pep-N (at doses of 5 μg in μl; 1 μg in μl; and 100 ng in 1 μl, respectively) and Pep-Q peptides (at doses of 5 μg in μl; 1 μg in μl; and 100 ng in 1 μl, respectively). FIG. 11 B is a graph of the area of leakage by each eye. Single dose attenuates retinal angiogenesis in laser-induced mice CNV model via IVT route till 4 weeks. […] Eylea is the positive control. n=18 eyes per group; Values are expressed as means±s.e.m. n=3 independent experiment, **P<0.01, *P<0.05, student's t-test.\nLaser induced choridal neo-vascularization (CNV) in C57/BL6J (B6J) wild type mice (n=90).\nIn B6J mice, single injection of 100 μl volume at 25 mg/kg Bwt concentration Angio-3 was injected via intravenous (i/v) route and this was tested in both Preventive mode (before laser) and Regression mode (4 days after laser). […]\nAngio-3 was also injected via intravitreal (IVT) route, single injection of 1 μl volume at 2 different doses; 1 μg (High dose) and 100 ng (Low dose).\n4 laser photocoagulation sites were placed concentrically around the optic disc of both eyes to induce CNVs. A diode laser (810 nm) was used with a relative potency scale of 120 mW for mice and 250 mW for rats, an exposure time of 0.05 s, and a spot size of […]. Laser spots were focused with crystal covers to avoid laser beam dispersion. Bubble formation was confirmed the rupture of Bruch's membrane.\nFundus photography and fundus fluorescein angiography (FFA) was imaged using a MICRON IV fundus camera (Phoenix Laboratories USA). For FFA, animals were intraperitoneally injected with 10% sodium fluorescein at a dose of 0.01 ml per 5-6 gm body weight.\nIn B6J mice, single intravitreous (IVT) injection of 100 ng, 1 μg, 5 μg PEP-Q, PEP-N (modified Angio-3), Angio-3 and Eylea were executed and this was tested in Prevention mode (before laser) Method of Llser induced CNV model and injection was described as above."}, "[4]": {"tested_on": "KIBA mice that overexpress hVEGF", "assay": "Retinal function tests (ERG) in KIBA/KIMBA mice overexpressing hVEGF", "type": "in vivo, mouse", "conditions": "IVT treated; 2nd IVT at 12 weeks after 1st treatment", "method": "Eight-week-old KIBA mice that overexpress hVEGF were dark-adapted overnight (for at least 12 hours) and all the procedures were carried out under dim red light. Mice were anesthetized with a combination of ketamine (20 mg/kg body weight) and xylazine (2 mg/kg body weight). Pupils were dilated with a topical administration of 1% tropicamide (Alcon Laboratories, Inc., Fort Worth, Tex., USA) and 2.5% phenylephrine (Bausch and Lomb Pharmaceuticals, Inc., Tampa, Fla., USA) ophthalmic solutions.\nAnimals were placed in ERG recording table with body temperature controller for ERG recordings. Electroretinograms were recorded (Espion; Diagnosys LLC, Lowell, Mass., USA) with corneal monopolar electrodes. A goldcup electrode was placed in the mouth to serve as the reference electrode, and a silver-silver chloride electrode (Grass-Telefactor, West Warwick, R.I., USA) was placed in the tail to serve as the ground electrode. Recordings were performed at a wide range of stimulus intensity (−3.0 to 1.0 log cd·s/m2) in dark-adapted (scotopic) condition. The response a teach flash intensity was an average of at least five trials. […]\nERG was recorded from 8 weeks old to 24 weeks old of mice in untreated group (naïve group). In Angio-3 IVT treated group, ERG was recorded at 8 weeks old as baseline (BL) and then 6 and 12 weeks post treatment. […]"}}, "note": "Where no end group is shown, it is not given here.", "data": [{"sequence": "TPHTHNRTPE [Angio-3, Thr Pro His Thr His Asn Arg Thr Pro Glu]", "values": [{"measurement": "normal corneal wound healing process (percentage of wound defect remaining)", "setting": "[1]", "result": "didn't adversely affect the normal wound healing process"}, {"measurement": "retinal function (ERG a- and b-wave amplitude)", "setting": "[2]", "result": "no significant difference in retinal function"}, {"measurement": "natural wound healing process, menstrual cycle and behavioural change (safety of systemic route)", "setting": "[3]", "result": "did not affect the natural wound healing process, menstrual cycle and behavioural change"}, {"measurement": "ERG a and b-wave responses (retinal function)", "setting": "[4]", "result": "increased the a and b-wave responses for 6 weeks post treatment and then again increased the response for 20 weeks with second dose"}]}]}
